Holding throughout (format): cell-based
In experiment [1] the test system is A-549 (lung carcinoma). Kind of experiment: In vitro cytotoxicity, sulforhodamine B (SRB) method, A-549. Conditions: Homo sapiens, A549; A-549, SRB method; read-out: cytotoxicity (ED50) A-549. The method, then:
(§1) The chalcone derivatives of the present invention were evaluated for in vitro cytotoxicity against human carcinoma cell lines using a sulforhodamine B (SRB) method, which was developed in 1989 by the National Cancer Institute (NCI), USA.
(§2) HCT15 (colon adenocarcinoma; ATCC CCL-225), PC-3 (prostate adenocarcinoma; ATCC CRL-1435), and A-549 (lung carcinoma; ATCC CCL-185) cell lines were used. All of these carcinoma cells were sub-cultured at the Korean Research Institute of Bioscience and Biotechnology (KRIBB), Korea.
(§3) The human carcinoma cell lines were cultured in 10% FCS-containing RPMI 1640 medium (Gibco Cat. No. 31800) in an incubator at 37° C. under 5% CO2, and sub-cultured twice per week.
(§4) Cells were detached from the attached surface using 0.25% Trypsin (Sigma) and 3 mM CDTA (1,2-cyclohexane diamine tetraacetic acid, Sigma) in phosphate buffered saline (PBS, Sigma).
(§5) Compounds to be tested (the chalcone derivatives set forth in Table 1) were dissolved in a small amount of dimethylsulfoxide (DMSO, Sigma), and diluted in culture medium to a desired concentration. The final concentration of DMSO was less than 0.5%. The diluted compounds (final concentration: 30, 10, 3, 1 and 0.3 μg/ml) were sterilized through a 0.22-μm microfilter (Millipore). The cytotoxicity of the compounds to human carcinoma cell lines was assessed using a typical SRB method.
On the technique in general: In SRB staining, fixed cells bind dye roughly in proportion to their protein.

The subject of experiment [2] is PC-3 (prostate adenocarcinoma). Kind of experiment: In vitro cytotoxicity, sulforhodamine B (SRB) method, PC-3. The note with it: Homo sapiens; PC-3, SRB method; read-out: cytotoxicity (ED50) PC-3. The method, then: as §1, §2, §3, §4, §5
The test system of experiment [3] is HCT15 (colon adenocarcinoma). The experiment is described as follows: In vitro cytotoxicity, sulforhodamine B (SRB) method, HCT15. Conditions: Homo sapiens; HCT-15, SRB method; read-out: cytotoxicity (ED50) HCT-15. The method, then:
as §1, §2, §3, §4, §5

Values after ≈ are worked out from the molar mass of the structure shown.

Data on 30 compounds can be found in patent US9072698B2, “Method for screening anti-cancer compounds inhibiting function of TM4SF5 and anti-cancer composition containing chalcone compounds” (Seoul National University Industry Foundation, priority 2006, dated 2015).

As to `O=C(/C=C/c1ccc(O)cc1)c1ccc(NS(=O)(=O)c2cccc(F)c2)cc1` [Compound 25, 4′-(m-fluorobenzensulfonylamino)-4-hydroxychalcone], the IC50 in experiment [1] is 51 µg/mL (≈ 128 µM); in experiment [2] it was 57 µg/mL (≈ 143 µM); in experiment [3] it was 54 µg/mL (≈ 136 µM).
For `O=C(/C=C/c1ccccc1O)c1ccc(OS(=O)(=O)c2ccc(O)cc2)cc1` [Compound 86, 4′-(p-hydroxybenzenesulfonate)-2-hydroxychalcone], in that order: 30 µg/mL (≈ 75.7 µM), 34 µg/mL (≈ 85.8 µM) and 26 µg/mL (≈ 65.6 µM).
In the same order, the values of `O=C(/C=C/c1ccc(O)cc1)c1ccc(OS(=O)(=O)c2ccccc2)cc1` [Compound 40, 4′-(benzenesulfonate)-4-hydroxychalcone] are 30 µg/mL, 39 µg/mL and 31 µg/mL.
In the same order, the values of `O=C(/C=C/c1cccc(O)c1O)c1ccc(OS(=O)(=O)c2ccc(O)cc2)cc1` [Compound 91, 4′-(p-hydroxybenzenesulfonate)-2,3-dihydroxychalcone] are 10 µg/mL (≈ 24.2 µM), 14 µg/mL (≈ 33.9 µM) and 7 µg/mL (≈ 17 µM).
On to `Cc1ccc(S(=O)(=O)Nc2cccc(C(=O)/C=C/c3ccc(O)cc3)c2)cc1` [Compound 4, 3′-(p-toluenesulfonylamino)-4-hydroxychalcone], for which the IC50 in experiment [1] is 34 µg/mL (≈ 86.4 µM); in experiment [2], 37 µg/mL (≈ 94 µM); in experiment [3], 38 µg/mL (≈ 96.6 µM).
As for `O=C(/C=C/c1ccc(O)c(O)c1)c1ccc(NS(=O)(=O)c2cccc([N+](=O)[O-])c2)cc1` [Compound 76, 4′-(m-nitrobenzensulfonylamino)-3,4-dihydroxychalcone], the IC50 was 11 µg/mL (≈ 25 µM) in experiment [1], 17 µg/mL (≈ 38.6 µM) in experiment [2] and 12 µg/mL (≈ 27.2 µM) in experiment [3].
On to `O=C(/C=C/c1ccccc1O)c1ccc(NS(=O)(=O)c2cccc(O)c2)cc1` [Compound 17, 4′-(m-hydroxybenzenesulfonylamino)-2-hydroxychalcone], for which the results for the IC50 in experiment [1], in experiment [2] and in experiment [3] were 33 µg/mL (≈ 83.5 µM), 44 µg/mL (≈ 111 µM) and 32 µg/mL (≈ 80.9 µM), respectively.
On to `O=C(/C=C/c1ccc(O)cc1)c1ccc(OS(=O)(=O)c2ccc(O)cc2)cc1` [Compound 84, 4′-(p-hydroxybenzenesulfonate)-4-hydroxychalcone], for which the IC50 in experiment [1] came out at 38 µg/mL (≈ 95.9 µM); in experiment [2], 22 µg/mL (≈ 55.5 µM); in experiment [3], 32 µg/mL (≈ 80.7 µM).
Take `O=C(/C=C/c1ccccc1O)c1ccccc1NS(=O)(=O)c1ccc(O)cc1` [Compound 14, 2′-(p-hydroxybenzenesulfonylamino)-2-hydroxychalcone]: the figures for the IC50 in experiment [1], in experiment [2] and in experiment [3] were 31 µg/mL (≈ 78.4 µM), 29 µg/mL (≈ 73.3 µM) and 38 µg/mL (≈ 96.1 µM), respectively.
In the same order, the values of `O=C(/C=C/c1ccc(O)c(O)c1)c1ccc(NS(=O)(=O)c2ccccc2[N+](=O)[O-])cc1` [Compound 77, 4′-(o-nitrobenzensulfonylamino)-3,4-dihydroxychalcone] are 11 µg/mL (≈ 25 µM), 12 µg/mL (≈ 27.2 µM) and 10 µg/mL (≈ 22.7 µM).
Regarding `O=C(/C=C/c1ccc(O)cc1O)c1ccc(NS(=O)(=O)c2cccc(O)c2)cc1` [Compound 62, 4′-(m-hydroxybenzenesulfonylamino)-2,4-dihydroxychalcone], the IC50 in experiment [1] was found to be 12 µg/mL (≈ 29.2 µM); in experiment [2] it was 8 µg/mL (≈ 19.4 µM); in experiment [3], 7 µg/mL (≈ 17 µM).
With `O=C(/C=C/c1ccc(O)c(O)c1)c1ccc(NS(=O)(=O)c2ccc(F)cc2)cc1` [Compound 72, 4′-(p-fluorobenzensulfonylamino)-3,4-dihydroxychalcone], the IC50 in experiment [1] turned out to be 11 µg/mL (≈ 26.6 µM); in experiment [2], 8 µg/mL (≈ 19.4 µM); in experiment [3], 10 µg/mL (≈ 24.2 µM).
In the case of `O=C(/C=C/c1ccc(O)c(O)c1)c1ccc(NS(=O)(=O)c2cccc(O)c2)cc1` [Compound 60, 4′-(m-hydroxybenzenesulfonylamino)-3,4-dihydroxychalcone], the IC50 in experiment [1] was 7 µg/mL (≈ 17 µM); in experiment [2], 8 µg/mL (≈ 19.4 µM); in experiment [3], 4 µg/mL (≈ 9.72 µM).
In the same order, the values of `Cc1ccc(S(=O)(=O)Nc2ccc(C(=O)/C=C/c3ccc(O)cc3Cl)cc2)cc1` [Compound 83, 4′-(p-toluenebenzensulfonylamino)-2-chloro-4-hydroxychalcone] are 11 µg/mL (≈ 25.7 µM), 14 µg/mL (≈ 32.7 µM) and 15 µg/mL (≈ 35.1 µM).
Turning to `O=C(/C=C/c1ccc(O)cc1)c1ccc(NS(=O)(=O)c2ccccc2F)cc1` [Compound 26, 4′-(o-fluorobenzensulfonylamino)-4-hydroxychalcone], the IC50 in experiment [1] stood at 20 µg/mL (≈ 50.3 µM); in experiment [2] it was 28 µg/mL (≈ 70.5 µM); in experiment [3], 22 µg/mL (≈ 55.4 µM).
Consider `O=C(/C=C/c1ccc(O)cc1O)c1ccccc1NS(=O)(=O)c1ccc(O)cc1` [Compound 58, 2′-(p-hydroxybenzenesulfonylamino)-2,4-dihydroxychalcone], for which the IC50 in experiment [1] came to 12 µg/mL (≈ 29.2 µM); in experiment [2], 10 µg/mL (≈ 24.3 µM); in experiment [3] it was 11 µg/mL (≈ 26.7 µM).
In the case of `O=C(/C=C/c1ccc(O)cc1O)c1ccccc1NS(=O)(=O)c1cccc(O)c1` [Compound 70, 2′-(m-hydroxybenzenesulfonylamino)-2,4-dihydroxychalcone], the IC50 worked out at 9 µg/mL (≈ 21.9 µM) in experiment [1], 11 µg/mL (≈ 26.7 µM) in experiment [2] and 8 µg/mL (≈ 19.4 µM) in experiment [3].
For `O=C(/C=C/c1cccc(O)c1)c1ccccc1NS(=O)(=O)c1cccc(O)c1` [Compound 22, 2′-(m-hydroxybenzenesulfonylamino)-3-hydroxychalcone], in that order: 27 µg/mL (≈ 68.3 µM), 45 µg/mL (≈ 114 µM) and 28 µg/mL (≈ 70.8 µM).
In the same order, the values of `O=C(/C=C/c1ccc(O)cc1)c1ccc(OS(=O)(=O)c2cccc(F)c2)cc1` [Compound 37, 4′-(m-fluorobenzenesulfonate)-4-hydroxychalcone] are 37 µg/mL (≈ 92.9 µM), 27 µg/mL (≈ 67.8 µM) and 34 µg/mL (≈ 85.3 µM).
For the compound `O=C(/C=C/c1ccc(O)c(O)c1)c1ccc(NS(=O)(=O)c2ccc([N+](=O)[O-])cc2)cc1` [Compound 75, 4′-(p-nitrobenzensulfonylamino)-3,4-dihydroxychalcone], the IC50 in experiment [1] came out at 14 µg/mL (≈ 31.8 µM); in experiment [2] it was 15 µg/mL (≈ 34.1 µM); in experiment [3], 8 µg/mL (≈ 18.2 µM).
On to `Nc1ccc(S(=O)(=O)Nc2ccc(C(=O)/C=C/c3ccc(O)c(O)c3)cc2)cc1` [Compound 78, 4′-(p-aminobenzensulfonylamino)-3,4-dihydroxychalcone], for which the IC50 turned out to be 10 µg/mL (≈ 24.4 µM) in experiment [1], 7 µg/mL (≈ 17.1 µM) in experiment [2] and 5 µg/mL (≈ 12.2 µM) in experiment [3].
Regarding `Nc1cccc(S(=O)(=O)Nc2ccc(C(=O)/C=C/c3ccc(O)cc3)cc2)c1` [Compound 31, 4′-(m-aminobenzensulfonylamino)-4-hydroxychalcone], the values for the IC50 in experiment [1], in experiment [2] and in experiment [3] were 34 µg/mL (≈ 86.2 µM), 27 µg/mL (≈ 68.4 µM) and 24 µg/mL (≈ 60.8 µM), respectively.
As to `O=C(/C=C/c1ccccc1O)c1ccc(NS(=O)(=O)c2ccc(O)cc2)cc1` [Compound 8, 4′-(p-hydroxybenzenesulfonylamino)-2-hydroxychalcone], the IC50 in experiment [1] is 31 µg/mL (≈ 78.4 µM); in experiment [2], 34 µg/mL (≈ 86 µM); in experiment [3], 30 µg/mL (≈ 75.9 µM).
Regarding `Cc1ccc(S(=O)(=O)Nc2cccc(C(=O)/C=C/c3ccc(O)c(O)c3)c2)cc1` [Compound 46, 3′-(p-toluenesulfonylamino)-3,4-dihydroxychalcone], the values for the IC50 in experiment [1], in experiment [2] and in experiment [3] were 13 µg/mL (≈ 31.7 µM), 8 µg/mL (≈ 19.5 µM) and 9 µg/mL (≈ 22 µM), respectively.
As to `Cc1ccc(S(=O)(=O)Nc2ccc(C(=O)/C=C/c3cccc(O)c3)cc2)cc1` [Compound 2, 4′-(p-toluenesulfonylamino)-3-hydroxychalcone], the figures for the IC50 in experiment [1], in experiment [2] and in experiment [3] were 36 µg/mL (≈ 91.5 µM), 39 µg/mL (≈ 99.1 µM) and 37 µg/mL (≈ 94 µM), respectively.
In the case of `O=C(/C=C/c1ccc(O)cc1)c1ccc(OS(=O)(=O)c2cccc(O)c2)cc1` [Compound 87, 4′-(m-hydroxybenzenesulfonate)-4-hydroxychalcone], the IC50 in experiment [1] was found to be 20 µg/mL (≈ 50.5 µM); in experiment [2] it was 21 µg/mL (≈ 53 µM); in experiment [3], 19 µg/mL (≈ 47.9 µM).
For `O=C(/C=C/c1ccc(O)cc1)c1ccc(NS(=O)(=O)c2ccccc2)cc1` [Compound 33, 4′-(benzensulfonylamino)-4-hydroxychalcone], in that order: 45 µg/mL (≈ 119 µM), 42 µg/mL (≈ 111 µM) and 47 µg/mL (≈ 124 µM).
For `O=C(/C=C/c1cc(O)ccc1O)c1cccc(NS(=O)(=O)c2cccc(O)c2)c1` [Compound 67, 3′-(m-hydroxybenzenesulfonylamino)-2,5-dihydroxychalcone], in that order: 14 µg/mL (≈ 34 µM), 15 µg/mL (≈ 36.5 µM) and 7 µg/mL (≈ 17 µM).
Regarding `Nc1ccc(S(=O)(=O)Oc2ccc(C(=O)/C=C/c3ccc(O)cc3)cc2)cc1` [Compound 39, 4′-(p-aminobenzenesulfonate)-4-hydroxychalcone], the IC50 in experiment [1] is 37 µg/mL (≈ 93.6 µM); in experiment [2], 38 µg/mL (≈ 96.1 µM); in experiment [3] it was 39 µg/mL (≈ 98.6 µM).
On to `O=C(/C=C/c1ccc(O)cc1)c1cccc(NS(=O)(=O)c2ccc(O)cc2)c1` [Compound 9, 3′-(p-hydroxybenzenesulfonylamino)-4-hydroxychalcone], for which the IC50 was determined as 40 µg/mL (≈ 101 µM) in experiment [1], 31 µg/mL (≈ 78.4 µM) in experiment [2] and 24 µg/mL (≈ 60.7 µM) in experiment [3].
